Measurements taken from patent US11905284B2, “5,7-dihydro-pyrrolo-pyridine derivatives” (PFIZER INC., priority 2016, dated 2024).

Biological target: T1, Human M4 receptors (Homo sapiens, UniProt P08173)
T1 construct: expressed in transfected cells; host or cells: HEK293 cells with Promega GloSensor cAMP technology, stably expressing hM4
T1 sequence (P08173 1-479): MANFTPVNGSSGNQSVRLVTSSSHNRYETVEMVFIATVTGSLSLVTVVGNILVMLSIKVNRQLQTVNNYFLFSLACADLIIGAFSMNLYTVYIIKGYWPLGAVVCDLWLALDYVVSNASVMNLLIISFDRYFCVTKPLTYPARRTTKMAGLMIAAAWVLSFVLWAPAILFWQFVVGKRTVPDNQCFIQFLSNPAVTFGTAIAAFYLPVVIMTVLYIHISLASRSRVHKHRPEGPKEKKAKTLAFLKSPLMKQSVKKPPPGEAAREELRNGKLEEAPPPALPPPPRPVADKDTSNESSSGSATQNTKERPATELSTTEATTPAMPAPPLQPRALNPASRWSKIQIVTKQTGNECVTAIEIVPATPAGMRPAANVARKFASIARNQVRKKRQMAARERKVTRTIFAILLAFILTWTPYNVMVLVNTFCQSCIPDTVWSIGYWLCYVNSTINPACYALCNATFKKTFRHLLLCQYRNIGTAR
Assay: M4 PAM cAMP assay (GloSensor)
Assay type: cell-based
Settings: for Emax: HEK293, read-out: M4 glosensor EC50 Mean Asymptote Maximum (%)
Method: The M4 PAM binding affinity for the compounds of the present invention was determined utilizing the following biological assay(s):
The M4 cAMP assay was designed to determine the potency and efficacy of muscarinic positive allosteric modulators (PAMs). Human M4 receptors were stably expressed in Human embryonic kidney (HEK293) cells expressed with the Promega GloSensor™ cAMP technology.
HEK293 GloSensor cells expressing hM4 cells were cultured in growth media containing DMEM with 10% FBS, 1% Penicillin/Streptomycin, 500 μg/mL G418, 200 μg/mL Hygomycin B, and 1% Glutamax. […] Plates were incubated at 37 degrees C. and 5% CO2 for use after 24 hours.
Compound Preparation for Agonist Screen:
Each compound was tested at 10 concentrations in duplicate per experiment. Compound plates are spotted with 0.2 μL/well agonist at 400 times the final assay concentration. Positive and negative controls for the compound alone agonist response was 10 μM acetylcholine (Sigma #A2661) and DMSO, respectively. EC20 of acetylcholine was also used to define PAM activities.
Promega GloSensor™ reagent (Promega #E1291) had previously been aliquotted. […] Stock solution was mixed. Culture media in cell plates was discarded, then replaced with 40 μL/well pre-warmed equilibration media, then incubated in the dark at room temperature for 2 hours. During the incubation, stimulation media containing agonist and EC20 acetylcholine was prepared. […] Compounds are now 5 times the final assay concentration. The plate was mixed using a plate agitator. At the end of the 2 hour GloSensor™ incubation, add 10 μL of the CO2-independent media containing agonist, EC20 acetylcholine and isoproterenol to the cell plate. Cell plate was then incubated for 10 minutes at room temperature, and then read using an EnVision plate reader (Perkin Elmer).
Data was exported from the EnVision plate reader. The percent effect for each well was determined using the mean values for the positive and negative controls on each plate for each read, specifically 100*(compound−negative control)/(positive control−negative control). Dose response curves were fitted to the compound percent effect data using a 4-parameter logistic fit model. Data was reported as EC50 and Emax, with the Emax as the maximum asymptote of the fitted dose response curve.

[1] = HEK293 GloSensor cells expressing hM4, with EC20 acetylcholine and isoproterenol, geometric mean of 2-4 determinations unless otherwise indicated

SMILES | M4 glosensor EC50 Mean Asymptote Maximum (%) (Emax = maximum asymptote of fitted dose response curve, HEK293 GloSensor cells expressing hM4, with EC20 acetylcholine and isoproterenol, geometric mean of 2-4 determinations unless otherwise indicated) | EC50 [1] [nM] | Emax [%]
Cc1nc2c(c(C)c1C)CN(C(=O)C[C@@H]1C[C@H]1c1cccnc1)C2 (single isomer, unassigned) [Example 38, 2-[trans-2-(pyridin-3-yl)cyclopropyl]-1-(2,3,4-trimethyl-5,7-dihydro-6H-pyrrolo[3,4-b]pyridin-6-yl)ethanone] | 111 | 15.9 | 
Cc1nc2c(c(C)c1Cl)CN(C(=O)CC1CN(c3nncs3)C1)C2 [Example 44, 1-(3-chloro-2,4-dimethyl-5,7-dihydro-6H-pyrrolo[3,4-b]pyridin-6-yl)-2-[1-(1,3,4-thiadiazol-2-yl)azetidin-3-yl]ethanone] |  | 16.8 | 112
Cc1nc2c(c(C)c1C)CN(C(=O)OC1CN(c3cccnc3)C1)C2 [Example 36, 1-(pyridin-3-yl)azetidin-3-yl 2,3,4-trimethyl-5,7-dihydro-6H-pyrrolo[3,4-b]pyridine-6-carboxylate] |  | 10.4 | 93
Cc1cc(C(F)F)nc2c1CN(C(=O)CC1CN(c3ccnc(C(F)F)c3)C1)C2 [Example 45, 1-[2-(difluoromethyl)-4-methyl-5,7-dihydro-6H-pyrrolo[3,4-b]pyridin-6-yl]-2-{1-[2-(difluoromethyl)pyridin-4-yl]azetidin-3-yl}ethanone] |  | 15.6 | 93.5
Cc1nc2c(c(C)c1Cl)CN(C(=O)CC1CN(c3ccncn3)C1)C2 [Example 39, 1-(3-chloro-2,4-dimethyl-5,7-dihydro-6H-pyrrolo[3,4-b]pyridin-6-yl)-2-[1-(pyrimidin-4-yl)azetidin-3-yl]ethanone] |  | < 1.39 | 96.4
Cc1cc(CO)nc2c1CN(C(=O)CC1CN(c3ccnc(C(F)(F)F)c3)C1)C2 [Example 33, 1-[2-(hydroxymethyl)-4-methyl-5,7-dihydro-6H-pyrrolo[3,4-b]pyridin-6-yl]-2-{1-[2-(trifluoromethyl)pyridin-4-yl]azetidin-3-yl}ethanone] |  | 14 | 100
Cc1cc(C)c2c(n1)CN(C(=O)CC1CN(c3ccc(CO)cc3)C1)C2 [Example 71, 1-(2,4-dimethyl-5,7-dihydro-6H-pyrrolo[3,4-b]pyridin-6-yl)-2-{1-[4-(hydroxymethyl)phenyl]azetidin-3-yl}ethanone] |  | 195 | 90.5
COCc1nc2c(c(C)c1Cl)CN(C(=O)CC1CN(c3ccnc(OC(F)F)c3)C1)C2 [Example 52, 1-[3-chloro-2-(methoxymethyl)-4-methyl-5,7-dihydro-6H-pyrrolo[3,4-b]pyridin-6-yl]-2-{1-[2-(difluoromethoxy)pyridin-4-yl]azetidin-3-yl}ethanone] |  | 4.68 | 111
Cc1cc(C)c2c(n1)CN(C(=O)CC1CN(c3ccc(C4CC4)cc3)C1)C2 [Example 72, 2-[1-(4-cyclopropylphenyl)azetidin-3-yl]-1-(2,4-dimethyl-5,7-dihydro-6H-pyrrolo[3,4-b]pyridin-6-yl)ethanone] |  | 537 | 90.6
Cc1cc(CO)nc2c1CN(C(=O)CC1CN(c3cccnc3)C1)C2 [Example 9, 1-[2-(Hydroxymethyl)-4-methyl-5,7-dihydro-6H-pyrrolo[3,4-b]pyridin-6-yl]-2-[1-(pyridin-3-yl)azetidin-3-yl]ethanone] |  | 17.2 | 86.5
Cc1nc2c(c(C)c1C)CN(C(=O)OC1CN(c3nncs3)C1)C2 [Example 65, 1-(1,3,4-thiadiazol-2-yl)azetidin-3-yl 2,3,4-trimethyl-5,7-dihydro-6H-pyrrolo[3,4-b]pyridine-6-carboxylate] |  | 62.6 | 88.2
Cc1cc(C)c2c(n1)CN(C(=O)CC1CN(c3cc(NC(C)C)ncn3)C1)C2 [Example 42, 1-(2,4-dimethyl-5,7-dihydro-6H-pyrrolo[3,4-b]pyridin-6-yl)-2-{1-[6-(propan-2-ylamino)pyrimidin-4-yl]azetidin-3-yl}ethanone] |  | 5.05 | 93.9
COCc1cc(C)c2c(n1)CN(C(=O)CC1CN(c3cncnc3)C1)C2 [Example 31, 1-[2-(methoxymethyl)-4-methyl-5,7-dihydro-6H-pyrrolo[3,4-b]pyridin-6-yl]-2-[1-(pyrimidin-5-yl)azetidin-3-yl]ethanone] |  | 17.8 | 89.3
Cc1nc2c(c(C)c1C)CN(C(=O)CC1CN(c3ccnc(C(F)F)c3)C1)C2 [Example 46, 2-{1-[2-(difluoromethyl)pyridin-4-yl]azetidin-3-yl}-1-(2,3,4-trimethyl-5,7-dihydro-6H-pyrrolo[3,4-b]pyridin-6-yl)ethanone] |  | 9.53 | 106
Cc1cc(C(F)F)nc2c1CN(C(=O)CC1CN(c3ccnc(OC(F)F)c3)C1)C2 [Example 25, 2-{1-[2-(difluoromethoxy)pyridin-4-yl]azetidin-3-yl}-1-[2-(difluoromethyl)-4-methyl-5,7-dihydro-6H-pyrrolo[3,4-b]pyridin-6-yl]ethanone] |  | 25.7 | 78.7
COc1nc2c(c(C)c1Cl)CN(C(=O)CC1CN(c3cncnc3)C1)C2 [Example 26, 1-(3-chloro-2-methoxy-4-methyl-5,7-dihydro-6H-pyrrolo[3,4-b]pyridin-6-yl)-2-[1-(pyrimidin-5-yl)azetidin-3-yl]ethanone] |  | 13.9 | 117
Cc1ccc([C@H]2C[C@@H]2CC(=O)N2Cc3nc(C)cc(C)c3C2)cn1 [Example 17, 1-(2,4-Dimethyl-5,7-dihydro-6H-pyrrolo[3,4-b]pyridin-6-yl)-2-[(1R,2S)-2-(6-methylpyridin-3-yl)cyclopropyl]ethanone] |  | 71.9 | 107
CCNc1nccc(N2CC(CC(=O)N3Cc4nc(C)cc(C)c4C3)C2)n1 [Example 41, 1-(2,4-dimethyl-5,7-dihydro-6H-pyrrolo[3,4-b]pyridin-6-yl)-2-{1-[2-(ethylamino)pyrimidin-4-yl]azetidin-3-yl}ethanone] |  | 7.35 | 95.6
Cc1cc(C)c2c(n1)CN(C(=O)C[C@H]1C[C@@H]1c1ccc3cncnc3c1)C2 (racemic) [Example 76, 1-(2,4-dimethyl-5,7-dihydro-6H-pyrrolo[3,4-b]pyridin-6-yl)-2-[trans-2-(quinazolin-7-yl)cyclopropyl]ethanone] |  | 1400 | 45
Cc1nc2c(c(C)c1Cl)CN(C(=O)OC1CN(c3ncns3)C1)C2 [Example 67, 1-(1,2,4-thiadiazol-5-yl)azetidin-3-yl 3-chloro-2,4-dimethyl-5,7-dihydro-6H-pyrrolo[3,4-b]pyridine-6-carboxylate] |  | 18.5 | 98.6
Cc1cc(C(F)F)nc2c1CN(C(=O)CC1CN(c3ccnc(C(F)(F)F)c3)C1)C2 [Example 6, 1-[2-(Difluoromethyl)-4-methyl-5,7-dihydro-6H-pyrrolo[3,4-b]pyridin-6-yl]-2-{1-[2-(trifluoromethyl)pyridin-4-yl]azetidin-3-yl}ethanone] |  | 9.75 | 92.4
Cc1cc(CO)nc2c1CN(C(=O)CC1CN(c3ccncn3)C1)C2 [Example 24, 1-[2-(hydroxymethyl)-4-methyl-5,7-dihydro-6H-pyrrolo[3,4-b]pyridin-6-yl]-2-[1-(pyrimidin-4-yl)azetidin-3-yl]ethanone] |  | 31 | 93.8
Cc1cc(C)c2c(n1)CN(C(=O)OC1CN(c3nncs3)C1)C2 [Example 62, 1-(1,3,4-thiadiazol-2-yl)azetidin-3-yl 2,4-dimethyl-5,7-dihydro-6H-pyrrolo[3,4-b]pyridine-6-carboxylate] |  | 95.7 | 47
Cc1nc2c(c(C)c1C)CN(C(=O)CC1CN(c3ccncn3)C1)C2 [Example 35, 2-[1-(pyrimidin-4-yl)azetidin-3-yl]-1-(2,3,4-trimethyl-5,7-dihydro-6H-pyrrolo[3,4-b]pyridin-6-yl)ethanone] |  | 2.56 | 87.9
